Assay results: patent US11046716B2, “Beta-lactamase inhibitors” (priority 2015, dated 2021)

Tests used:
AmpC = biological target: T1, AmpC (Enterobacter cloacae, UniProt P05364); test: β-lactamase enzyme inhibition assay, p99 AmpC (nitrocefin substrate); format: biochemical
T1 construct: made in house; host or cells: E. coli BL21(DE3)
Outline: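 Untagged enzyme from E. coli BL21(DE3), purified by Capto S then Superdex 75; 15 min 37 °C preincubation with inhibitor; 10 min kinetic read; IC50 vs uninhibited wells.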

[1] = test system: K. pneumoniae producing the Class D carbapenemase OXA-48; test: Broth microdilution MIC assay with meropenem, K. pneumoniae OXA-48; format: cell-based; settings: Fixed Mero (meropenem) 4 μg/mL; K. p. 11978 OXA-48
Outline: (§1)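 CAMHB; cpd 2-fold serial dilution, 16–0.125 μg/mL final; β-lactam static 4 μg/ml; CLSI inoculation; 16–20 h, 37° C; MIC read by eye.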

OXA-48 = OXA-48 (UniProt Q6XEC0); test: β-lactamase enzyme inhibition assay, Class D oxacillinase; format: biochemical; settings: read-out: OXA-48
[2] = test system: E. coli expressing the Class A Extended Spectrum Beta-Lactamase (ESBL) CTX-M-15; test: Broth microdilution MIC assay with ceftazidime, E. coli CTX-M-15; format: cell-based; settings: Fixed CAZ (ceftazidime) 4 μg/mL; E. coli ESBL4 CTX-M-15
Outline: as §1

[3] = test system: K. pneumoniae expressing the class A carbapenemase KPC-2 and the class B carbapenemase VIM-4; test: Broth microdilution MIC assay with meropenem, K. pneumoniae KPC-2 and VIM-4; format: cell-based; settings: Fixed Mero (meropenem) 4 μg/mL; K. p. A-1797 KPC-2 VIM-4
Outline: as §1

SHV-5 = biological target: T2, SHV-5 (Klebsiella pneumoniae, UniProt P0A3M1); test: β-lactamase enzyme inhibition assay, SHV-5 (cefotaxime substrate); format: biochemical
T2 construct: made in house; host or cells: E. coli BL21(DE3)
Outline: (§2)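 Untagged enzyme from E. coli BL21(DE3), purified by Capto S then Superdex 75; 15 min 37 °C preincubation with inhibitor; KPC-2 read with imipenem at 300 nm, SHV-5 with cefotaxime at 260 nm, OXA-1 with nitrocefin 100 μM final at 486 nm; 10 min kinetic read; IC50 vs uninhibited wells.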

VIM-2 = biological target: T3, VIM-2 (Escherichia coli, UniProt Q5U7L7); test: β-lactamase enzyme inhibition assay, VIM-2 (nitrocefin substrate); format: biochemical; settings: Class B; nitrocefin substrate, 486 nm; read-out: VIM-2
T3 construct: made in house; host or cells: E. coli BL21(DE3)
Outline: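 Enzyme + inhibitor, 37 °C, 15 min; nitrocefin 100 μM final; A486 read for 10 min. % inhibition vs no-inhibitor wells per concentration; IC50 = concentration halving initial hydrolysis rate.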

[4] = test system: K. pneumoniae expressing the Class A carbapenemase KPC-2; test: Broth microdilution MIC assay with meropenem, K. pneumoniae KPC-2; format: cell-based; settings: Fixed Mero (meropenem) 4 μg/mL; K. p. 156319 KPC-3
Outline: as §1

KPC-2 = biological target: T4, KPC-2 (Klebsiella pneumoniae, UniProt Q9F663); test: β-lactamase enzyme inhibition assay, KPC-2 (imipenem substrate); format: biochemical; settings: Class A; imipenem substrate, 300 nm; read-out: KPC-2
T4 construct: made in house; host or cells: E. coli BL21(DE3)
Outline: as §2

[5] = test system: P. aeruginosa expressing the Class B carbapenemase VIM-2; test: Broth microdilution MIC assay with meropenem, P. aeruginosa VIM-2; format: cell-based; settings: Fixed Mero (meropenem) 4 μg/mL; P. aerug. 2775 VIM-2
Outline: as §1

[6] = test system: E. cloacae expressing the Class C P99; test: Broth microdilution MIC assay with ceftazidime, E. cloacae P99; format: cell-based; settings: Fixed CAZ (ceftazidime) 4 μg/mL; E. cl. 144200 p99 AmpC
Outline: as §1

T4 sequence (Q9F663 25-293, looked up): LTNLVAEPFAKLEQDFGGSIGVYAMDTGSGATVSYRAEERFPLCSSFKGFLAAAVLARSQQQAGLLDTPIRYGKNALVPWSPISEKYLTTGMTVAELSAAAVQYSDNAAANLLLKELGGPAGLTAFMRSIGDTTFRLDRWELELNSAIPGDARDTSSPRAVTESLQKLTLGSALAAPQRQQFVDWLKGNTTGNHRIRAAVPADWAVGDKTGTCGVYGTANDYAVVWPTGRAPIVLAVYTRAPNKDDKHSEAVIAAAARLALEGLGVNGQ
T1 sequence (P05364 21-381): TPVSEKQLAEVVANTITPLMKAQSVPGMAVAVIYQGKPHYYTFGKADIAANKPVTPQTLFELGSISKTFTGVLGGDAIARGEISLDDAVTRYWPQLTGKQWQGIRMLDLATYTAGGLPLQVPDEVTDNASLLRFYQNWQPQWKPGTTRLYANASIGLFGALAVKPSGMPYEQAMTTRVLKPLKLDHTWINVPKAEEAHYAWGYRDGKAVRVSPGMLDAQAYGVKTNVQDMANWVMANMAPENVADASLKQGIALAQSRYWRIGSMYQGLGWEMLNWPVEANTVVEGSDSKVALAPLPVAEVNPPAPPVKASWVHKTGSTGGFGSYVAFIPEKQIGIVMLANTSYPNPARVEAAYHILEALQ
T2 sequence (P0A3M1 22-286): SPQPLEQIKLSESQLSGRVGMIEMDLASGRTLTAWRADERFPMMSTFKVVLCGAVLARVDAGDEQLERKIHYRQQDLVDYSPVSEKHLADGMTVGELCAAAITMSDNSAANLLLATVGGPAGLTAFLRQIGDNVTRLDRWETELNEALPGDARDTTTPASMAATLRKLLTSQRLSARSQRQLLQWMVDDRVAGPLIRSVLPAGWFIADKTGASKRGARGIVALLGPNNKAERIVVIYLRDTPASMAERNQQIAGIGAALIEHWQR

Structure (SMILES)	IC50 (AmpC) [nM]	MIC (μg/mL) of Exemplary Compounds in presence of fixed β-lactams: K. p. 11978 OXA-48 [1]	IC50 (OXA-48) [nM]	MIC (μg/mL) of Exemplary Compounds in presence of fixed β-lactams: E. coli ESBL4 CTX-M-15 [2]	MIC (μg/mL) of Exemplary Compounds in presence of fixed β-lactams: K. p. A-1797 KPC-2 VIM-4 [3]	IC50 (SHV-5) [nM]	IC50 (VIM-2) [nM]	MIC (μg/mL) of Exemplary Compounds in presence of fixed β-lactams: K. p. 156319 KPC-3 [4]	IC50 (KPC-2) [nM]	MIC (μg/mL) of Exemplary Compounds in presence of fixed β-lactams: P. aerug. 2775 VIM-2 [5]	MIC (μg/mL) of Exemplary Compounds in presence of fixed β-lactams: E. cl. 144200 p99 AmpC [6]
N=CNCc1cn(CC(=O)N[C@H]2Cc3cccc(C(=O)O)c3OB2O)nn1 [Example 22, (R)-3-(2-(4-(formimidamidomethyl)-1H-1,2,3-triazol-1-yl)acetamido)-2-hydroxy-3,4-dihydro-2H-benzo[e][1,2]oxaborinine-8-carboxylic acid]	< 100	B (B represents an MIC between 1 and 16 μg/mL inclusive)	1000 to 10000	C (C represents an MIC of <1 μg/mL)	B (B represents an MIC between 1 and 16 μg/mL inclusive)	100 to 1000	100 to 1000	C (C represents an MIC of <1 μg/mL)	100 to 1000	C (C represents an MIC of <1 μg/mL)	C (C represents an MIC of <1 μg/mL)
O=C(Cn1cc(CO)nn1)N[C@H]1Cc2cccc(C(=O)O)c2OB1O [Example 1, (R)-2-hydroxy-3-(2-(4-(hydroxymethyl)-1H-1,2,3-triazol-1-yl)acetamido)-3,4-dihydro-2H-benzo[e][1,2]oxaborinine-8-carboxylic acid]	< 100	B (B represents an MIC between 1 and 16 μg/mL inclusive)	100 to 1000	C (C represents an MIC of <1 μg/mL)	B (B represents an MIC between 1 and 16 μg/mL inclusive)	< 100	1000 to 10000	B (B represents an MIC between 1 and 16 μg/mL inclusive)	< 100	B (B represents an MIC between 1 and 16 μg/mL inclusive)	C (C represents an MIC of <1 μg/mL)
O=C(Cc1nnn(CC2CCNCC2)n1)N[C@H]1Cc2cccc(C(=O)O)c2OB1O [Example 99, (R)-2-hydroxy-3-(2-(2-(piperidin-4-ylmethyl)-2H-tetrazol-5-yl)acetamido)-3,4-dihydro-2H-benzo[e][1,2]oxaborinine-8-carboxylic acid]	< 100	B (B represents an MIC between 1 and 16 μg/mL inclusive)	100 to 1000	C (C represents an MIC of <1 μg/mL)	B (B represents an MIC between 1 and 16 μg/mL inclusive)	< 100	100 to 1000	C (C represents an MIC of <1 μg/mL)	< 100	C (C represents an MIC of <1 μg/mL)	C (C represents an MIC of <1 μg/mL)
N=C(N)NCC(O)Cc1cn(CC(=O)N[C@H]2Cc3cccc(C(=O)O)c3OB2O)nn1 (stereo partly drawn) [Example 93, (3R)-3-(2-(4-(3-guanidino-2-hydroxypropyl)-1H-1,2,3-triazol-1-yl)acetamido)-2-hydroxy-3,4-dihydro-2H-benzo[e][1,2]oxaborinine-8-carboxylic acid]	< 100	B (B represents an MIC between 1 and 16 μg/mL inclusive)	1000 to 10000	C (C represents an MIC of <1 μg/mL)	B (B represents an MIC between 1 and 16 μg/mL inclusive)	< 100	100 to 1000	B (B represents an MIC between 1 and 16 μg/mL inclusive)	< 100	C (C represents an MIC of <1 μg/mL)	C (C represents an MIC of <1 μg/mL)
Nc1ccc(-c2cn(CC(=O)N[C@H]3Cc4cccc(C(=O)O)c4OB3O)nn2)cn1 [Example 74, (R)-3-(2-(4-(6-aminopyridin-3-yl)-1H-1,2,3-triazol-1-yl)acetamido)-2-hydroxy-3,4-dihydro-2H-benzo[e][1,2]oxaborinine-8-carboxylic acid]	< 100	B (B represents an MIC between 1 and 16 μg/mL inclusive)	100 to 1000	C (C represents an MIC of <1 μg/mL)	A (A represents an MIC>16 μg/mL)	< 100	1000 to 10000	B (B represents an MIC between 1 and 16 μg/mL inclusive)	< 100	B (B represents an MIC between 1 and 16 μg/mL inclusive)	C (C represents an MIC of <1 μg/mL)
NCCONC(=O)c1cn(CC(=O)N[C@H]2Cc3cccc(C(=O)O)c3OB2O)nn1 [Example 61, (R)-3-(2-(4-((2-aminoethoxy)carbamoyl)-1H-1,2,3-triazol-1-yl)acetamido)-2-hydroxy-3,4-dihydro-2H-benzo[e][1,2]oxaborinine-8-carboxylic acid]	< 100	B (B represents an MIC between 1 and 16 μg/mL inclusive)	100 to 1000	C (C represents an MIC of <1 μg/mL)	B (B represents an MIC between 1 and 16 μg/mL inclusive)	< 100	100 to 1000	B (B represents an MIC between 1 and 16 μg/mL inclusive)	< 100	C (C represents an MIC of <1 μg/mL)	C (C represents an MIC of <1 μg/mL)
CNCc1cn(CC(=O)N[C@H]2Cc3cccc(C(=O)O)c3OB2O)nn1 [Example 26, (R)-2-hydroxy-3-(2-(4-((methylamino)methyl)-1H-1,2,3-triazol-1-yl)acetamido)-3,4-dihydro-2H-benzo[e][1,2]oxaborinine-8-carboxylic acid]	< 100	B (B represents an MIC between 1 and 16 μg/mL inclusive)	100 to 1000	C (C represents an MIC of <1 μg/mL)	C (C represents an MIC of <1 μg/mL)	< 100	< 100	B (B represents an MIC between 1 and 16 μg/mL inclusive)	100 to 1000	B (B represents an MIC between 1 and 16 μg/mL inclusive)	C (C represents an MIC of <1 μg/mL)
NCCc1nnn(CC(=O)N[C@H]2Cc3cccc(C(=O)O)c3OB2O)n1 [Example 103, (R)-3-(2-(5-(2-aminoethyl)-2H-tetrazol-2-yl)acetamido)-2-hydroxy-3,4-dihydro-2H-benzo[e][1,2]oxaborinine-8-carboxylic acid]	< 100	B (B represents an MIC between 1 and 16 μg/mL inclusive)	100 to 1000	C (C represents an MIC of <1 μg/mL)	B (B represents an MIC between 1 and 16 μg/mL inclusive)	100 to 1000	100 to 1000	C (C represents an MIC of <1 μg/mL)	< 100	C (C represents an MIC of <1 μg/mL)	C (C represents an MIC of <1 μg/mL)
